According to US7473669B2, “Substituted 4,5-dihydro-1,2,4-triazin-6-ones, 1,2,4-triazin-6-ones, and their use as fungicides” (priority 2005, dated 2009):
Like-named read-outs stand apart in the source and are kept apart here.

Legend:
Leptosphaeria nodorum = test: Glume Blotch of Wheat greenhouse one-day protectant test; type: in vivo; settings: Parastagonospora nodorum, 24 h, read-out: LEPTNO percent control rating
Erysiphe cichoracaerum = test: Cucumber Powdery Mildew greenhouse one-day protectant test; type: in vivo; settings: 24 h, read-out: ERYSCI percent control rating
Phytophthora infestans = test: whole plant or invertebrate; type: in vivo; settings: in Solanum lycopersicum, 24 h, read-out: PHYTIN percent control rating, tomato plants, one-day protectant test, 200 ppm application rate
Pyricularia oryzae = test: whole plant or invertebrate; type: in vivo; settings: 24 h, read-out: PYRIOR percent control rating
[1] = test system: Puccinia recondita tritici; test: Leaf Rust of Wheat greenhouse one-day protectant test; type: in vivo; settings: 24 h, read-out: PUCCRT percent control rating
Colletotricum lagenarium = test: Cucumber Anthracnose greenhouse one-day protectant test; type: in vivo; settings: Cucumis sativus, 24 h, read-out: COLLLA percent control rating
[2] = wheat plants, one-day protectant test, 200 ppm application rate
[3] = cucumber plants, one-day protectant test, 200 ppm application rate

SMILES	pest or weed control at 200 ppm (Leptosphaeria nodorum; [2]) [%]	pest or weed control at 200 ppm (Erysiphe cichoracaerum; [3]) [%]	pest or weed control at 200 ppm (Phytophthora infestans) [%]	pest or weed control at 200 ppm (Pyricularia oryzae) [%]	pest or weed control at 200 ppm [1, 2] [%]	melting point [°C]	pest or weed control at 200 ppm (Colletotricum lagenarium; [3]) [%]	pest or weed control at 200 ppm (Leptosphaeria nodorum) [%]	pest or weed control at 200 ppm (Erysiphe cichoracaerum) [%]	pest or weed control at 200 ppm [1] [%]	pest or weed control at 200 ppm (Colletotricum lagenarium) [%]
O=C1C(SC2CCCCC2)NC(c2cccc(I)c2)=NN1CC(F)(F)F (centres unmarked) [Compound 49, 5-cyclohexylthio-3-(3-iodophenyl)-1-(2,2,2-trifluoroethyl)-4,5-1,2,4-dihydrotriazin-6(1H)-one]	80 to 100	0 to 49	0 to 49	80 to 100	80 to 100	172 to 173	80 to 100	–	–	–	–
O=C1CNC(c2cc(-c3ccsc3)cc(-c3ccsc3)c2)=NN1CC(F)(F)F [Compound 61, 3-(3,5-dithien-3-ylphenyl)-1-(2,2,2-trifluoroethyl)-4,5-dihydro-1,2,4-triazin-6(1H)-one]	0 to 49	0 to 49	0 to 49	80 to 100	80 to 100	180 to 182	0 to 49	–	–	–	–
O=C1CNC(c2cc(Br)cc(-c3ccsc3)c2)=NN1CC(F)(F)F [Compound 67, 3-(3-Bromo-5-thien-3-ylphenyl)-1-(2,2,2-trifluoroethyl)-4,5-dihydro-1,2,4-triazin-6(1H)-one]	80 to 100	0 to 49	0 to 49	80 to 100	80 to 100	167 to 169	80 to 100	–	–	–	–
O=C1CNC(c2cccc(Cc3ccccc3)c2)=NN1CC(F)(F)F [Compound 73, 3-(3-benzylphenyl)-1-(2,2,2-trifluoroethyl)-4,5-dihydro-1,2,4-triazin-6(1H)-one]	80 to 100	0 to 49	0 to 49	80 to 100	80 to 100	104 to 106	0 to 49	–	–	–	–
CON=C(c1ccccc1)c1cccc(C2=NN(CC(F)(F)F)C(=O)CN2)c1 [Compound 75, 3-{3-[(Z)-(Methoxyimino)phenyl)methyl]phenyl}-1-(2,2,2-trifluoroethyl)-4,5-dihydro-1,2,4-triazin-6(1H)-one]	80 to 100	0 to 49	0 to 49	80 to 100	80 to 100	119 to 123	0 to 49	–	–	–	–
O=c1cnc(-c2cc(-c3ccsc3)cc(-c3ccsc3)c2)nn1CC(F)(F)F [Compound 80, 3-(3,5-dithien-3-ylphenyl)-1-(2,2,2-trifluoroethyl)-1,2,4-triazin-6(1H)-one]	0 to 49	0 to 49	0 to 49	80 to 100	50 to 79	189 to 191	0 to 49	–	–	–	–
O=c1cnc(-c2cc(Br)cc(-c3ccsc3)c2)nn1CC(F)(F)F [Compound 84, 3-(3-Bromo-5-thien-3-ylphenyl)-1-(2,2,2-trifluoroethyl)-1,2,4-triazin-6(1H)-one]	80 to 100	0 to 49	0 to 49	80 to 100	0 to 49	180 to 182	50 to 79	–	–	–	–
Cc1cc(C)cc(-c2ncc(=O)n(Cc3c(F)c(F)c(F)c(F)c3F)n2)c1 [Compound 85]	80 to 100	0 to 49	0 to 49	80 to 100	80 to 100	–	80 to 100	–	–	–	–
Cc1cc(C)cc(-c2ncc(=O)n(CCOc3ccccc3)n2)c1 [Compound 86]	80 to 100	0 to 49	0 to 49	80 to 100	80 to 100	–	80 to 100	–	–	–	–
O=c1cnc(-c2cc(Cl)cc(Cl)c2)nn1CCOc1ccccc1 [Compound 87]	0 to 49	0 to 49	0 to 49	0 to 49	0 to 49	–	0 to 49	–	–	–	–
O=c1cnc(-c2ccc(-c3ccc(Cl)s3)nc2)nn1CC(F)(F)F [Compound 88]	50 to 79	0 to 49	0 to 49	0 to 49	0 to 49	–	0 to 49	–	–	–	–
O=c1cnc(-c2cccc(/C=C\c3ccccc3)c2)nn1CC(F)(F)F [Compound 89]	–	–	0 to 49	80 to 100	–	–	–	80 to 100	0 to 49	80 to 100	50 to 79
O=c1cnc(-c2cccc(CC3=CCc4ccccc43)c2)nn1CC(F)(F)F [Compound 90]	50 to 79	0 to 49	0 to 49	80 to 100	50 to 79	–	0 to 49	–	–	–	–
O=c1cnc(-c2cccc(Cc3ccccc3)c2)nn1CC(F)(F)F [Compound 91, 3-(3-Benzylphenyl)-1-(2,2,2-trifluoroethyl)-1,2,4-triazin-6(1H)-one]	80 to 100	80 to 100	0 to 49	80 to 100	80 to 100	95 to 96	80 to 100	–	–	–	–
O=c1cnc(-c2cccc(C#Cc3ccccc3)c2)nn1CC(F)(F)F [Compound 92]	50 to 79	0 to 49	50 to 79	80 to 100	80 to 100	–	80 to 100	–	–	–	–
CON=C(c1ccccc1)c1cccc(-c2ncc(=O)n(CC(F)(F)F)n2)c1 [Compound 94, 3-{3-[(Z)-(Methoxyimino)phenyl)methyl]phenyl}-1-(2,2,2-trifluoroethyl)-1,2,4-triazin-6(1H)-one]	80 to 100	0 to 49	0 to 49	80 to 100	80 to 100	127 to 129	0 to 49	–	–	–	–
O=c1cnc(-c2cccc(C(=NOCc3ccccc3)c3ccccc3)c2)nn1CC(F)(F)F [Compound 95]	50 to 79	0 to 49	0 to 49	80 to 100	0 to 49	139 to 140	0 to 49	–	–	–	–
C[Si](C)(C)C#CCn1nc(-c2ccc(F)c(Br)c2)ncc1=O [Compound 96, 3-(3-bromo-4-fluorophenyl)-1-(3-trimethylsilanyl-prop-2-ynyl)-1,2,4-triazin-6(1H)-one]	0 to 49	0 to 49	0 to 49	80 to 100	50 to 79	103 to 105	50 to 79	–	–	–	–
O=c1cnc(-c2ccc(F)c(Br)c2)nn1Cc1ccc(Cl)nc1 [Compound 97, (3-bromo-4-fluoro-phenyl)-1-(6-chloro-pyridin-3-ylmethyl)-1H-[1,2,4]triazin-6-one]	80 to 100	0 to 49	0 to 49	80 to 100	80 to 100	–	50 to 79	–	–	–	–
